# Experimental data taken from ChEMBL document CHEMBL1122367, “Synthesis and antihypertensive activity of a series of spiro[1,3,4,6,7,11b-hexahydro-2H-benzo[a]quinolizine-2,5'-oxazolidin-2'-one]s” (1983).
# Activity calls are given as the source filed them. No cut-off for these calls is given here.
# What was measured:
# Rattus norvegicus [1] = assay: Antihypertensive activity as percentage fall in systolic blood pressure in spontaneously hypertensive rats 1 hr after 0.31 mg/kg po administration; assay type: functional, Artery
# Rattus norvegicus [2] = assay: Antihypertensive activity as percentage fall in systolic blood pressure in spontaneously hypertensive rats 4 hr after 0.31 mg/kg po administration; assay type: functional, Artery
# Rattus norvegicus [3] = assay: Antihypertensive activity as percentage fall in systolic blood pressure in spontaneously hypertensive rats 2 hr after 0.31 mg/kg po administration; assay type: functional, Artery
# Rattus norvegicus [4] = assay: Antihypertensive activity as percentage fall in systolic blood pressure in spontaneously hypertensive rats 3h after 0.31 mg/kg po administration; assay type: functional, Artery
# Rattus norvegicus [5] = assay: Antihypertensive activity as percentage fall in systolic blood pressure in spontaneously hypertensive rats 3h after 1.25 mg/kg po administration
# Rattus norvegicus [6] = assay: Antihypertensive activity as percentage fall in systolic blood pressure in spontaneously hypertensive rats 4 hr after 1.25 mg/kg po administration
# Rattus norvegicus [7] = assay: Antihypertensive activity as percentage fall in systolic blood pressure in spontaneously hypertensive rats 1 hr after 1.25 mg/kg po administration
# Rattus norvegicus [8] = assay: Antihypertensive activity as percentage fall in systolic blood pressure in spontaneously hypertensive rats 2 hr after 1.25 mg/kg po administration
# Rattus norvegicus [9] = assay: Percentage fall in systolic blood pressure in spontaneously hypertensive rats 3h after 50 mg/kg p.o. administration; Not significant.; assay type: functional, organism-based; design: dose 50 mg/kg; conditions: Artery, at 50 mg/kg
# Rattus norvegicus [10] = assay: Antihypertensive activity as percentage fall in systolic blood pressure in spontaneously hypertensive rats 4 hr after 25 mg/kg po administration;NS means nonsignificant difference between treated and control group; assay type: functional, organism-based; design: dose 25 mg/kg; conditions: Artery, at 25 mg/kg
# Rattus norvegicus [11] = assay: Antihypertensive activity as percentage fall in systolic blood pressure in spontaneously hypertensive rats 4 hr after 50 mg/kg po administration; assay type: functional, Artery
# Rattus norvegicus [12] = assay: Antihypertensive activity as percentage fall in systolic blood pressure in spontaneously hypertensive rats 1 hr after 25 mg/kg po administration;NS means nonsignificant difference between treated and control group; assay type: functional, organism-based; design: dose 25 mg/kg; conditions: Artery, at 25 mg/kg
# Rattus norvegicus [13] = assay: Antihypertensive activity as percentage fall in systolic blood pressure in spontaneously hypertensive rats 1 hr after 50 mg/kg po administration; assay type: functional, Artery
# Rattus norvegicus [14] = assay: Antihypertensive activity as percentage fall in systolic blood pressure in spontaneously hypertensive rats 2 hr after 25 mg/kg po administration;NS means nonsignificant difference between treated and control group; assay type: functional, organism-based; design: dose 25 mg/kg; conditions: Artery, at 25 mg/kg
# Rattus norvegicus [15] = assay: Percentage fall in systolic blood pressure in spontaneously hypertensive rats 2 hr after 50 mg/kg p.o. administration.; assay type: functional, Artery; conditions: route oral
# Rattus norvegicus [16] = assay: Antihypertensive activity as percentage fall in systolic blood pressure in spontaneously hypertensive rats 3h after 25 mg/kg po administration; assay type: functional
# Rattus norvegicus [17] = assay: Antihypertensive activity as percentage fall in systolic blood pressure in spontaneously hypertensive rats 4 hr after 12.5 mg/kg po administration;NS means nonsignificant difference between treated and control group; assay type: functional, organism-based; design: dose 12.5 mg/kg; conditions: Artery, at 12.5 mg/kg
# Rattus norvegicus [18] = assay: Antihypertensive activity as percentage fall in systolic blood pressure in spontaneously hypertensive rats 4 hr after 25 mg/kg po administration; assay type: functional, Artery
# Rattus norvegicus [19] = assay: Antihypertensive activity as percentage fall in systolic blood pressure in spontaneously hypertensive rats 1 hr after 12.5 mg/kg po administration;NS means nonsignificant difference between treated and control group; assay type: functional, organism-based; design: dose 12.5 mg/kg; conditions: Artery, at 12.5 mg/kg
# Rattus norvegicus [20] = assay: Antihypertensive activity as percentage fall in systolic blood pressure in spontaneously hypertensive rats 1 hr after 25 mg/kg po administration; assay type: functional, Artery
# Rattus norvegicus [21] = assay: Antihypertensive activity as percentage fall in systolic blood pressure in spontaneously hypertensive rats 2 hr after 12.5 mg/kg po administration;NS means nonsignificant difference between treated and control group; assay type: functional, organism-based; design: dose 12.5 mg/kg; conditions: Artery, at 12.5 mg/kg
# Rattus norvegicus [22] = assay: Antihypertensive activity as percentage fall in systolic blood pressure in spontaneously hypertensive rats 2 hr after 25 mg/kg po administration; assay type: functional, Artery
# Rattus norvegicus [23] = assay: Antihypertensive activity as percentage fall in systolic blood pressure in spontaneously hypertensive rats 3h after 12.5 mg/kg po administration;NS means nonsignificant difference between treated and control group; assay type: functional, organism-based; design: dose 12.5 mg/kg; conditions: Artery, at 12.5 mg/kg
smiles,measurement,setting,value
COc1cc2nc(N3CCN(C(=O)c4ccco4)CC3)nc(N)c2cc1OC [PRAZOSIN],Fall,Rattus norvegicus [1],19%
same,Fall,Rattus norvegicus [2],26%
same,Fall,Rattus norvegicus [3],31%
same,Fall,Rattus norvegicus [4],21%
same,Fall,Rattus norvegicus [5],36%
same,Fall,Rattus norvegicus [6],31%
same,Fall,Rattus norvegicus [7],26%
same,Fall,Rattus norvegicus [8],46%
CCN1C[C@]2(CCN3CCc4cc(OC)c(OC)cc4[C@@H]3C2)OC1=O,Fall,Rattus norvegicus [9],Not significant
same,Fall,Rattus norvegicus [10],Not significant
same,Fall,Rattus norvegicus [11],18%
same,Fall,Rattus norvegicus [12],Not significant
same,Fall,Rattus norvegicus [13],43%
same,Fall,Rattus norvegicus [14],Not significant
same,Fall,Rattus norvegicus [15],30%
same,Fall,"Rattus norvegicus [16]; Artery, at 25 mg/kg",Not significant
O=C(NC1CCN(CCc2c[nH]c3ccccc23)CC1)c1ccccc1 [INDORAMIN],Fall,Rattus norvegicus [17],inactive
same,Fall,Rattus norvegicus [18],30%
same,Fall,Rattus norvegicus [19],inactive
same,Fall,Rattus norvegicus [20],27%
same,Fall,Rattus norvegicus [21],inactive
same,Fall,Rattus norvegicus [22],28%
same,Fall,Rattus norvegicus [23],inactive
same,Fall,Rattus norvegicus [16],34%
